Data reported in PubChem BioAssay (NCI).
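Tested at 5 concentrations; 48 h exposure; 96-well plates; endpoints linearly interpolated, else capped at highest concentration. GI50 is the concentration that inhibits growth by half. TGI marks complete inhibition of growth.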

What was measured:
Experiment in all cases: DTP human tumour cell line panel, 48 h
HCC-2998 colon = system: HCC-2998 colon
SF-539 CNS = system: SF-539 CNS
NCI-H460 lung = system: NCI-H460 lung
A549 NSCLC = system: A549 NSCLC
TK-10 renal = system: TK-10 renal
HT29 colon = system: HT29 colon
M14 melanoma = system: M14 melanoma
EKVX NSCLC = system: EKVX NSCLC

Row | SMILES | GI50 (HCC-2998 colon) | TGI (HCC-2998 colon) | GI50 (SF-539 CNS) | TGI (SF-539 CNS) | GI50 (NCI-H460 lung) | TGI (NCI-H460 lung) | GI50 (A549 NSCLC) | TGI (A549 NSCLC) | GI50 (TK-10 renal) | TGI (TK-10 renal) | GI50 (HT29 colon) | TGI (HT29 colon) | GI50 (M14 melanoma) | TGI (M14 melanoma) | GI50 (EKVX NSCLC) | TGI (EKVX NSCLC)
1 | Cc1nc2ccc(-n3ncc(C(=O)c4cc5ccccc5[nH]4)c3N)cc2[nH]1 | 14.4 µM | > 100 µM | 1.17 µM | 10.9 µM | 2.39 µM | 40.6 µM | 8.46 µM | > 100 µM | 18.4 µM | > 100 µM | 5.13 µM | 66.9 µM | 12.2 µM | 63.4 µM | 20.9 µM | > 100 µM
2 | CSC1=CC(=O)c2ccccc2C1=O | 15.3 µM | 29.9 µM | 11.4 µM | 24.3 µM | 31.3 µM | > 100 µM | 24.2 µM | 64.8 µM | 2.66 µM | 5.5 µM | 26.3 µM | 65.2 µM | 2.03 µM | 3.88 µM | 15.5 µM | 34.9 µM
3 | CS(=O)(=O)Nc1cc(-c2ccc3ncc(C#N)c(Nc4ccc(F)c(Cl)c4)c3c2)cnc1Cl | 0.382 µM | 1.55 µM | 0.109 µM | 0.79 µM | 0.301 µM | > 29.1 µM | 0.468 µM | 3.12 µM | 0.166 µM | 0.793 µM | 0.29 µM | 2.3 µM | 0.193 µM | 1.92 µM | 0.275 µM | 3.29 µM
4 | COc1ccc(-c2nc3sccn3c2-c2ccnc(NCCNS(=O)(=O)c3ccc(C(F)(F)F)cc3)n2)cc1 | 4.6 µM | > 100 µM | 2.55 µM | 7.77 µM | 2 µM | 11.6 µM | 3.98 µM | > 100 µM | 2.87 µM | > 100 µM | 2.45 µM | > 100 µM | 0.69 µM | 3.25 µM | 4.04 µM | > 100 µM
5 | CC1(C)N=C(N)N=C(N)N1c1ccc(OCC(=O)Nc2ccc(S(=O)(=O)F)cc2Cl)c(Cl)c1 | 23.2 µM | > 100 µM | 4.77 µM | > 100 µM | 0.591 µM | > 100 µM | 2.5 µM | > 100 µM | 15.4 µM | > 100 µM | 2.57 µM | > 100 µM | 5.01 µM | > 100 µM | > 100 µM | > 100 µM
6 | Nc1nc2ccc(CNc3ccc(C(=O)NC(CC(=O)O)C(=O)O)cc3)cc2c(=O)[nH]1 (centres undefined) | 7.39 µM | > 100 µM | 3.3 µM | > 100 µM | 0.593 µM | > 100 µM | 0.549 µM | – | > 100 µM | > 100 µM | 0.67 µM | > 100 µM | – | > 100 µM | – | > 100 µM
7 | CCc1ccc(Oc2c(-c3ccc(OCCc4cccc(C(F)(F)F)c4)cc3O)n[nH]c2C(F)(F)F)cc1 | 8.54 µM | 16 µM | 7.39 µM | 14 µM | 1.67 µM | 5.74 µM | 4.89 µM | 11.1 µM | 5.52 µM | 11.5 µM | 8.13 µM | 14.9 µM | 5.23 µM | 11.9 µM | 5.11 µM | 11.2 µM
8 | CC(C)c1cnc(-c2cc(Cl)ccc2F)cc1Nc1ccncc1C(=O)NC(CO)CO | 17.6 µM | 33.2 µM | 15 µM | 29.9 µM | 12.5 µM | 28.3 µM | 11.1 µM | 62.3 µM | 10.8 µM | 56 µM | 14.6 µM | 33.7 µM | 17.8 µM | 39 µM | 11.2 µM | 24.6 µM
9 | COc1cccc2nc(Nc3cccc(NC(=O)c4ccc(N5CCN(C)CC5)c(C(F)(F)F)c4)c3)ccc12 | 0.95 µM | 1.78 µM | 0.895 µM | 1.66 µM | 0.964 µM | 1.98 µM | 1.43 µM | 5.03 µM | 2.01 µM | 6.62 µM | 0.712 µM | 1.61 µM | 0.899 µM | 1.95 µM | 1.83 µM | 6.92 µM
10 | Cc1cc(O)ccc1C1(c2ccc(O)cc2C)OC(=O)c2ccccc21 | 18.5 µM | 33.9 µM | 17.4 µM | 33.5 µM | 19.7 µM | 40.4 µM | 20.8 µM | 37 µM | 17 µM | 30.8 µM | 19.9 µM | 35.5 µM | 18.3 µM | 37.1 µM | 14.9 µM | 31 µM
11 | CO/N=C(/C)COc1ccc2c(c1)oc(=O)c1cc(OC)ccc12 | > 100 µM | > 100 µM | > 100 µM | > 100 µM | > 100 µM | > 100 µM | > 100 µM | > 100 µM | > 100 µM | > 100 µM | > 100 µM | > 100 µM | > 100 µM | > 100 µM | > 100 µM | > 100 µM
12 | c1cc[n+](Cc2c3ccccc3cc3c2ccc2ccccc23)cc1 | 3.38 µM | 19.4 µM | 2.55 µM | 10.5 µM | 3.26 µM | 11.9 µM | 7.31 µM | 27.7 µM | 8.2 µM | 28.2 µM | 2.77 µM | 11.2 µM | 5.05 µM | 19.7 µM | 19.5 µM | > 100 µM
